Reference: patent US12098154B2, “Inhibitors of cyclin-dependent kinases” (Dana-Farber Cancer Institute, Inc., priority 2015, dated 2024)
Read-outs that look alike come from different tables or passages of the source.

Experiments:
[1] = biological target: CDK7/CycH (Homo sapiens, UniProt P50613); assay: CDK7/CycH inhibition (Tables A1, A2); format: biochemical
[2] = biological target: CDK9/CycT (Homo sapiens, UniProt P50750); assay: CDK9/CycT inhibition (Tables A1, A2); format: biochemical
[3] = tested on: Jurkat cells; assay: Jurkat proliferation assay (CellTiter-Glo); format: cell-based; settings: for IC50: Homo sapiens, Jurkat
Procedure: (§1) Jurkat cells were seeded at a density of 25,000 cells/well in 96-well plates. Cells were then treated with the indicated compounds in a 10-pt dose escalation format from 1 nM to 10 μM or DMSO control for 72 hours. After 72 hours, the cells were assayed using CellTiter-Glo Luminescent Cell Viability Assay (Promega) to determine cell viability by measuring the amount of ATP present in each sample cell population, which is an indicator of cell metabolic activity. […] All data points were performed in biological triplicate. Error bars are +/−SD.
as §1, with “hrs.” for “hours.”, “hrs,” for “hours, the”

[4] = biological target: CDK2/CycA (Homo sapiens, UniProt P24941); assay: CDK2/CycA inhibition (Tables A1, A2); format: biochemical
[5] = biological target: T1, CDK12 (Homo sapiens, UniProt Q9NYV4); assay: Pulldown assay with biotin-THZ1, blot for Cyclin K; format: cell-based; settings: Jurkat cells treated with 1 uM or 200 nM
T1 construct: endogenous in cells; host or cells: Jurkat
T1 sequence (Q9NYV4 whole entry): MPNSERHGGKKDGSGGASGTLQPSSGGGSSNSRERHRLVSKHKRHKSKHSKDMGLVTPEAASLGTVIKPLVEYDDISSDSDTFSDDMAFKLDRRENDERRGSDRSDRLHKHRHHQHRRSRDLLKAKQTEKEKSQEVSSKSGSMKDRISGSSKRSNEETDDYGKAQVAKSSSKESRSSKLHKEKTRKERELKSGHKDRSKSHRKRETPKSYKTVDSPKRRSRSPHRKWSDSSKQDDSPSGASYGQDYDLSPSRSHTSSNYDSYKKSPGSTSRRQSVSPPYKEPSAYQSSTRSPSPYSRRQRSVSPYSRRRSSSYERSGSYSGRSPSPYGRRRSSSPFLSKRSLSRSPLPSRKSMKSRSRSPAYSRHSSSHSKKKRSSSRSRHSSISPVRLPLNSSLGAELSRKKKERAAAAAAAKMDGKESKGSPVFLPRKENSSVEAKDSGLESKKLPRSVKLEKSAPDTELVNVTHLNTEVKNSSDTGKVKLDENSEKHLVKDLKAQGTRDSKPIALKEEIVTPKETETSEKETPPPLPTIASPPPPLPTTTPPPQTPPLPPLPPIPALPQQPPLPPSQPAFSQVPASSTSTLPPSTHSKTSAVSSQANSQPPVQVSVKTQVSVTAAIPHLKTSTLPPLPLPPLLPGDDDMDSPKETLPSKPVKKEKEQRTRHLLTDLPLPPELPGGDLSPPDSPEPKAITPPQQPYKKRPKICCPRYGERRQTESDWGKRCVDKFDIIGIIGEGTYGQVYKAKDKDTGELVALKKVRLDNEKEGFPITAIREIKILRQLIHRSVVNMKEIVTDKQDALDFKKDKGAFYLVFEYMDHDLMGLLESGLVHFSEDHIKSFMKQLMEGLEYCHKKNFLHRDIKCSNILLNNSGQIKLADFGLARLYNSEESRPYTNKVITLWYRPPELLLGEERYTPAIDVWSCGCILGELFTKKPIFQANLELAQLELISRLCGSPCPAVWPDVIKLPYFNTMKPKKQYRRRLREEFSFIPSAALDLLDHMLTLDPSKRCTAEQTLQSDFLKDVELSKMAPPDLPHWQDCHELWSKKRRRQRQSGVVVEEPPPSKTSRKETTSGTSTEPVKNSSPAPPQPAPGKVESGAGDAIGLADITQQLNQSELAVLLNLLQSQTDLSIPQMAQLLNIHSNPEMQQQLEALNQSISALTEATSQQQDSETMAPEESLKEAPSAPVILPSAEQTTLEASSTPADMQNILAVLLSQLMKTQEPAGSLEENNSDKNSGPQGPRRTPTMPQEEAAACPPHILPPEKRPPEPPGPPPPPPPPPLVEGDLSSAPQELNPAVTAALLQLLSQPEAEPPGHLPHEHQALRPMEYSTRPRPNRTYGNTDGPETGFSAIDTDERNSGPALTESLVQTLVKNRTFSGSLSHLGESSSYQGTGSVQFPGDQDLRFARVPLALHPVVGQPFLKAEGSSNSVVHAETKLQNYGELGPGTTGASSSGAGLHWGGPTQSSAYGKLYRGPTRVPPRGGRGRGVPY
T1 sequence (O75909 whole entry partner): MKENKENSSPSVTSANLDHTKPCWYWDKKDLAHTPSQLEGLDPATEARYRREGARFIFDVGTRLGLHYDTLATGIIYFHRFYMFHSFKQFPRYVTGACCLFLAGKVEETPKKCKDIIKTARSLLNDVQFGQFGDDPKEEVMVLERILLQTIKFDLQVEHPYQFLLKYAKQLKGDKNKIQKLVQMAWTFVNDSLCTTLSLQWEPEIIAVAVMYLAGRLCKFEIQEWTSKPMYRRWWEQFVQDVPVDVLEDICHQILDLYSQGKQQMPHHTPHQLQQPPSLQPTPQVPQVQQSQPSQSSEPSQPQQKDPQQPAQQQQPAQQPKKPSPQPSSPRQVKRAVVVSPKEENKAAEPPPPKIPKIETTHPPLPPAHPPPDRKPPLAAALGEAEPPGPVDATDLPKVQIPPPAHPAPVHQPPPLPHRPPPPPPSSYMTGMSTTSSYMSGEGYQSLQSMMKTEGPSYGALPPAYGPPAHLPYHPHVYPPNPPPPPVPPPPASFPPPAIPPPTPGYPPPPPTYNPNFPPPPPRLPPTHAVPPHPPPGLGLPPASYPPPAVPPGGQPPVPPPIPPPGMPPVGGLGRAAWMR
Procedure: Specifically. […] Decreased pulldown of cyclin K with biotin-THZ1 indicated a loss of CDK12 binding.
(§2) 6 hours after treatment, cells were washed and harvested by resuspending in lysis buffer (50 mM Hepes pH 7.4, 150 mM NaCl, 1% NP-40, 5 mM EDTA, protease and phosphatase inhibitors) and lysing on ice 30 minutes. Lysates were cleared by centrifugation at 15,000 rpm 30 minutes. Biotin-labeled THZ1 was added to 1 uM to lysates and rotated at 4° C. overnight. Streptavidin-agarose beads were washed and 30 uL slurry was added to each lysate and rotated for 1 hour at 4° C. Beads were washed 5 times with lysis buffer and 50 uL 2×LDS buffer was added to each sample. Samples were boiled and equal volume of protein was loaded onto gel. Gel was transferred to nitrocellulose and blotted for Cyclin K and Cyclin H.

[6] = biological target: T2, CDK7 (Homo sapiens, UniProt P50613); assay: Pulldown assay with biotin-THZ1, blot for Cyclin H; format: cell-based; settings: Jurkat cells treated with 1 uM or 200 nM
T2 construct: endogenous in cells; host or cells: Jurkat
T2 sequence (P50613 2-346 limits assumed): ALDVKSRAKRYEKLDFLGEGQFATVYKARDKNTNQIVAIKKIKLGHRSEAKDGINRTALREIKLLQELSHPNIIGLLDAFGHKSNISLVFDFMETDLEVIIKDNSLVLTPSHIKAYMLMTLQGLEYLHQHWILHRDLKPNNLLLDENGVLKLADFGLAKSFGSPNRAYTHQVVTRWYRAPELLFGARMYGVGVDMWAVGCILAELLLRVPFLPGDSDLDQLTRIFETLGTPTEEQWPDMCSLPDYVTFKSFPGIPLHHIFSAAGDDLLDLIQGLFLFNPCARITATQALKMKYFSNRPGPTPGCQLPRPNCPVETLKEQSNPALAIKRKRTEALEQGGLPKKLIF
T2 sequence (P51946 whole entry partner): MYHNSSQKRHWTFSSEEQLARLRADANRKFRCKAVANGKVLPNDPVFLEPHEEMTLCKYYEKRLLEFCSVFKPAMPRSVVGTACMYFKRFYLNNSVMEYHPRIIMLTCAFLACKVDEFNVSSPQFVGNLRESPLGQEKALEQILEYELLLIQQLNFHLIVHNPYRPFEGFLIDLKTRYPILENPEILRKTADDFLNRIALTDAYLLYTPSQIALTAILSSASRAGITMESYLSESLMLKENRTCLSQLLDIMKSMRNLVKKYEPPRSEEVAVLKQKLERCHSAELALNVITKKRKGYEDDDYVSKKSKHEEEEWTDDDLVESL
T2 sequence (P51948 whole entry partner): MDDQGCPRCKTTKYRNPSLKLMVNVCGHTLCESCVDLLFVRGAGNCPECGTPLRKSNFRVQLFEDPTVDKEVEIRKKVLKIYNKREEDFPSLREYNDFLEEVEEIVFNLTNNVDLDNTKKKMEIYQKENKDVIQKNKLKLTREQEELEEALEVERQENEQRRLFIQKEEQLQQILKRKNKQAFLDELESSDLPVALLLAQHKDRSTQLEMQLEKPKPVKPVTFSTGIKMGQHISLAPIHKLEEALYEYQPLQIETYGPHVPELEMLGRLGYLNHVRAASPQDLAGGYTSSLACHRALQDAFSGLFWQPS
Procedure: Compounds E9 and E17 were able to block pulldown of cyclin K at 1 μM and 200 nM. Specifically. […] Decreased pulldown of cyclin K with biotin-THZ1 indicated a loss of CDK12 binding.
as §2

[7] = tested on: Jurkat cells; assay: Growth assay with and without washout; format: cell-based; settings: 1 uM, 4 hours treatment, assayed 68 hours after washout
Procedure: Cells were treated with each compound for 4 hours and either no washout (no washout) or had compound removed by washing cells with media (washout). Sixty-eight (68) hours after washout, the cells were assayed for antiproliferative effects. Error bars indicate +/−SD.
4 hours after treatment, cells were either not treated or washed three times with RPMI media to remove all compound. Cells were replated and allowed to grow for 68 hours. Cells were assayed using celltiter glo (Promega) to determine cell viability by measuring the amount of ATP present, which is an indicator of cell metabolic activity. Results are graphed as luminescent values (FIG. 1).

[8] = tested on: Pol II Ser2 phosphorylation and MCL1 levels; assay: Washout expression assay (western blot); format: cell-based; settings: Jurkat cells, 1 uM, 4 hours, 6 hours
Procedure: 4 hours after treatment, cells were either not treated or washed three times with RPMI media to remove all compound. Cells were replated and allowed to grow for 6 hours. Cells were harvested, washed 3 times with PBS and resuspended in RIPA buffer (25 mM Tris-HCl (pH 7.6), 150 mM NaCl, 1% NP-40, 1% sodium deoxycholate, 0.1% SDS). Equal amount of protein was loaded onto gel and blotted for Pol II Ser2 (Millipore 04-1571), total pol II (Santa Cruz 17798), Tubulin (Cell Signaling 11H10) or MCL1 (Cell Signaling 4572S)

[9] = tested on: CDK12 and CDK13; assay: KiNativ kinome profiling; format: binding; settings: 1 μM, 6 hrs
Procedure: Jurkat cells were seeded at a density of 100 million cells/50 mL. Cells were treated with E9 (1 μM) or DMSO control for 6 hrs. Cells were washed twice with cold phosphate-buffered saline (PBS). PBS-washed cell pellets were flash frozen and subjected to KiNativt™ kinome profiling at ActivX Biosciences, Inc. according to their specifications using their desthiobiotin-ATP probe. Peptide sequences shown in Table A4 belong to the indicated kinase(s) and were detected by mass spectrometry (MS) under DMSO control conditions following enrichment for biotinylated proteins by streptavidin pulldown and subsequent proteolysis. Kinases labeled by the reactive desthiobiotin-ATP probe indicate that the kinase was accessible to desthiobiotin-ATP probe binding. Results shown are normalized to these paired DMSO controls and numbers represent the percentage (compared to DMSO control) of MS signal lost for sequences of an indicated kinase, eg—numbers approaching 100% indicate that test compound effectively out-competed the desthiobiotin ATP probe for binding to the kinase, resulting in decreased labeling and enrichment for peptides representing this kinase.

[10] = biological target: CDK12/CCNK complex (Homo sapiens, UniProt Q9NYV4); assay: Electrospray ionization mass spectra of CDK12/CCNK complex after treatment; format: binding; settings: 1 hr at room temperature
Sequence of CDK12/CCNK complex (Q9NYV4 whole entry): as the sequence (Q9NYV4 whole entry) above
Sequence of CDK12/CCNK complex (O75909 whole entry partner): as the sequence (O75909 whole entry partner) above
From the text: The zero-charge mass spectra in the upper panel and inset is the result of deconvolution of the raw mass spectrum in the lower panel. A. CCNK. C, phosphorylated CDK12. D, CDK12.
The zero-charge mass spectra in the upper panel and inset is the result of deconvolution of the raw mass spectrum in the lower panel. A, CCNK. B, phosphorylated and E-9 labeled CDK12. C, E-9 labeled CDK12.

[11] = tested on: TAL1, RUNX1, and MYB mRNA transcripts; assay: Jurkat gene expression analysis (qPCR); format: cell-based; settings: 1 μM, 6 hrs, Jurkat cells
Procedure: Jurkat cells were seeded at a density of 5 million cells/10 mL. Cells were then treated with 200 nM or 1 μM of the indicated compounds or with DMSO control for 6 hours. Total RNA was extracted from 5 million cells using the RNeasy Plus Mini Kit (Qiagen) with a gDNA eliminator mini column to remove genomic DNA. mRNA was reverse transcribed into cDNA using the SuperScript III First-Strand Synthesis Kit (Life Technologies) using an oligo-dT primer to capture polyadenylated mRNAs. Quantitative PCR (qPCR) using transcript-specific Taqman probes (Applied Biosystems) was used to assess the effect of compound treatment on the expression of the indicated mRNA transcripts. All experiments shown were performed in biological triplicate. Each individual biological sample was qPCR-amplified in technical duplicate. Error bars are +/−SD. Expression data from drug treatments were normalized to GAPDH probe.
Jurkat cells were seeded at a density of 5 million cells/10 mL. Cells were then treated with 200 nM or 1 μM of the indicated compounds or with DMSO control for 6 hrs. […] Quantitative PCR (qPCR) using transcript-specific Taqman probes (Applied Biosystems) was used to assess the effect of compound treatment on the expression of the indicated mRNA transcripts. […]

[12] = 72 h, CellTiter-Glo, read-out: IC50 on Jurkat T-ALL cell proliferation

Sequence of CDK9/CycT (P50750 whole entry): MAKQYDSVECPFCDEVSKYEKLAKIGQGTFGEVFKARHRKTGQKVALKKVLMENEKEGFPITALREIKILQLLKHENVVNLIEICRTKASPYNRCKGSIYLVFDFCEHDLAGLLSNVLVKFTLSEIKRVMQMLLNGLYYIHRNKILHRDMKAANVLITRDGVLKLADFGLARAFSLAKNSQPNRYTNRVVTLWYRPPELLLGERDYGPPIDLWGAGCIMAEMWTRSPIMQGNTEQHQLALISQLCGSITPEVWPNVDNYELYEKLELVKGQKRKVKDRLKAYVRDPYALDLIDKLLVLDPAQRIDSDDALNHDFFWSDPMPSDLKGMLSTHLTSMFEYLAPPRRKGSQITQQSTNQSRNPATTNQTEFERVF
Sequence of CDK9/CycT (O60563 whole entry partner): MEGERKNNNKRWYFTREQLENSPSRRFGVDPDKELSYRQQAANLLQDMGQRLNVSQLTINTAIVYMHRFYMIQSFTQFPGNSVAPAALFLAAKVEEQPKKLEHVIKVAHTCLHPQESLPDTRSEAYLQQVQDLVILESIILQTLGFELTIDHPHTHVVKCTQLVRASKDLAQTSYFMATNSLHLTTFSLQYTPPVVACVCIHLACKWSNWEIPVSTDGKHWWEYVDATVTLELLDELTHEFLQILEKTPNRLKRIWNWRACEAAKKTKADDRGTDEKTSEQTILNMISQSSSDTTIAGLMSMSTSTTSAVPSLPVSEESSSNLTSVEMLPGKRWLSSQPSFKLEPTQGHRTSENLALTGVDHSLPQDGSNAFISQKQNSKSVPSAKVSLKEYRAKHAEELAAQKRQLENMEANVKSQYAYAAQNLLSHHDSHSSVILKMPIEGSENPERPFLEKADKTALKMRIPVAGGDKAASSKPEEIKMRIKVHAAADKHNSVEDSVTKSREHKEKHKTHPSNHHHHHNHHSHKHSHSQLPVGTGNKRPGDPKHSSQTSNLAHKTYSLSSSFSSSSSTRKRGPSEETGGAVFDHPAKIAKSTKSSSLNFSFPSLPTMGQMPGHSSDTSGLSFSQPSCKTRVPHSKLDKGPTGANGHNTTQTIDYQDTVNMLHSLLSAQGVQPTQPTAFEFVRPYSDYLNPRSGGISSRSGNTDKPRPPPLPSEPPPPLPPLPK
Sequence of CDK7/CycH (P50613 whole entry): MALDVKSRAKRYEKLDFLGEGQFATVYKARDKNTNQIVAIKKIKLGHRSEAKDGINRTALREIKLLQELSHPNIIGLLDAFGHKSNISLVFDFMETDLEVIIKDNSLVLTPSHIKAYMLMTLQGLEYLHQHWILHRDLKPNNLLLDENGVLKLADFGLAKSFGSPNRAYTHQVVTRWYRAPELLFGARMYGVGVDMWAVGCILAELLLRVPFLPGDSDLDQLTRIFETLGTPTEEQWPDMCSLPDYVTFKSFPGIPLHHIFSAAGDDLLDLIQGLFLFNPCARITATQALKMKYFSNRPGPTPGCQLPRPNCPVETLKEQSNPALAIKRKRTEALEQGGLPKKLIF
Sequence of CDK7/CycH (P51946 whole entry partner): as the sequence (P51946 whole entry partner) above

| Structure (SMILES) | IC50 [1] [µM] | IC50 [2] [µM] | IC50 ([3]; read-out: Jurkat IC50) [µM] | IC50 [4] [µM] | IC50 [3, 12] [µM] | Mode of inhibition of Jurkat T-ALL cell proliferation [3] | IC50 ([3]; 72 h, read-out: IC50 on Jurkat T-ALL cell proliferation) [µM] | Pulldown of Cyclin K by biotin-THZ1 (CDK12 binding) [5] | Pulldown of Cyclin H by biotin-THZ1 (CDK7 binding) [6] | Inhibition of Jurkat cell viability with and without washout [7] | Effect on Polymerase II Serine 2 phosphorylation and MCL1 levels with and without washout [8] | Kinases bound in Jurkat cells (competition with desthiobiotin-ATP probe) [9] | Labeling of CDK12 (mass shift) [10] | Downregulation of TAL1, RUNX1, MYB transcripts [11] |
| --- | --- | --- | --- | --- | --- | --- | --- | --- | --- | --- | --- | --- | --- | --- |
| C=CC(=O)Nc1cccc(Nc2cc(N3CCCCC3CCO)nc3c(CC)cnn23)c1 (stereo not drawn) [E-9(SB1-E-23), N-(3-(3-Ethyl-5-(2-(2-hydroxyethyl)piperidin-1-yl)pyrazolo[1,5-a]pyrimidin-7-ylamino)phenyl)acrylamide] | 1.09 | 0.0216 | 0.0788 | 0.25 |  | irreversiably inhibit | < 0.1 | blocks the pulldown of Cyclin K | not able to bind to CDK7 | irreversibly inhibit Jurkat cell viability | irreversible effect | binds predominantly CDK12 and CDK13 | Only the masses of CDK12 proteins shift after treatment |  |
| C=CC(=O)Nc1cccc(Nc2cc(N[C@H]3CC[C@H](N(C)C)CC3)nc3c(CC)cnn23)c1 [SB1-E-21, N-(3-(5-((1r,4r)-4-(Dimethylamino)cyclohexylamino)-3-ethylpyrazolo[1,5-a]pyrimidin-7-ylamino)phenyl)acrylamide] | 1.21 | 0.226 | 0.318 | 1.22 | > 0.3 |  |  |  |  |  |  |  |  | potently reduce |
| C=CC(=O)Nc1cccc(Nc2cc(N[C@H]3CC[C@H](N(C)C)CC3)nc3c(C(C)C)cnn23)c1 [SB1-E-26, N-(3-(5-((1r,4r)-4-(Dimethylamino)cyclohexylamino)-3-isopropylpyrazolo[1,5-a]pyrimidin-7-ylamino)phenyl)acrylamide] | 1.09 | 0.429 | 0.518 | 0.939 | > 0.3 |  |  |  |  |  |  |  |  | potently reduce |
| C=CC(=O)Nc1cccc(Nc2nc(N3CCCCC3CCO)nc3c2ncn3C(C)C)c1 (stereo not drawn) [THZ-4-134-1, N-(3-((2-(2-(2-Hydroxyethyl)piperidin-1-yl)-9-isopropyl-9H-purin-6-yl)amino)phenyl)acrylamide] | 1.18 | 0.379 | 0.522 | 0.163 |  |  |  |  |  |  |  |  |  |  |

Stronger by IC50 [1], values ahead:

| IC50 [1] [µM] | IC50 [2] [µM] | IC50 ([3]; read-out: Jurkat IC50) [µM] | IC50 [4] [µM] | IC50 [3, 12] [µM] | Structure (SMILES) | Mode of inhibition of Jurkat T-ALL cell proliferation [3] | IC50 ([3]; 72 h, read-out: IC50 on Jurkat T-ALL cell proliferation) [µM] | Pulldown of Cyclin K by biotin-THZ1 (CDK12 binding) [5] | Pulldown of Cyclin H by biotin-THZ1 (CDK7 binding) [6] | Inhibition of Jurkat cell viability with and without washout [7] | Effect on Polymerase II Serine 2 phosphorylation and MCL1 levels with and without washout [8] | Kinases bound in Jurkat cells (competition with desthiobiotin-ATP probe) [9] | Labeling of CDK12 (mass shift) [10] | Downregulation of TAL1, RUNX1, MYB transcripts [11] |
| --- | --- | --- | --- | --- | --- | --- | --- | --- | --- | --- | --- | --- | --- | --- |
| 0.122 | 0.373 | 0.117 | 0.976 |  | C=CC(=O)Nc1ccc(C(=O)Nc2cccc(Nc3nc(N4CCCCC4CCO)nc4c3ncn4C(C)C)c2)cc1 (stereo not drawn) [THZ-4-124-1, 4-Acrylamido-N-(3-((2-(2-(2-hydroxyethyl)piperidin-1-yl)-9-isopropyl-9H-purin-6-yl)amino)phenyl)benzamide] |  |  |  |  |  |  |  |  |  |
| 0.0468 | 0.0734 | 1.04 | 17.1 |  | CCc1cnn2c(Nc3cccc(NC(=O)c4ccc(NC(=O)/C=C/CN(C)C)cc4)c3)cc(N3CCCC(N)C3)nc12 (stereo not drawn) [THZ-4-128-1, (E)-N-(3-((5-(3-Aminopiperidin-1-yl)-3-ethylpyrazolo[1,5-a]pyrimidin-7-yl)amino)phenyl)-4-(4-(dimethylamino)but-2-enamido)benzamide] |  |  |  |  |  |  |  |  |  |
